The record followed here is US8778974B2, “Trisubstituted 1,2,4 triazoles” (Janssen Pharmaceutica NV, priority 2008, dated 2014).

Data set [1] deals with T1, hα7-wt nAChR-expressing GH4Cl cells (Homo sapiens, UniProt P36544).
T1 construct: expressed in transfected cells
In words: Patch-clamp current recording (whole-cell), potentiation of choline 1 mM response, PAM type. Type of data set: cell-based. Also on record: key to Pam type: Type 0 compounds minimally enhance the effect size of the current elicited by 1 mM choline.; Type 1 compounds enhance the effect size of the current elicited by 1 mM choline but minimally alter the kinetics of the receptor.; Type 2 compounds enhance the effect size of the current elicited by 1 mM choline while reducing the rate and/or the extent of desensitization.; Type 3 compounds enhance the effect size of the current elicited by 1 mM choline. When tested at higher concentrations up to 10 μM they completely inhibit desensitization, in particular a 1 mM choline application of 250 milliseconds.; Type 4 compounds allow for an initial desensitization of the receptor followed by a re-opening of the receptor during agonist application. Conditions: for EC50: according to Ex. D.2, "<5" = no top plateau reached at maximal concentration, read-out: Potency (pEC50) (converted); for Pam type: patch-clamp current recording, 1 mM choline. An outline of the steps: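 PAM type assigned qualitatively from current size and desensitization rate/extent when compound is applied simultaneously with 1 mM choline. Recordings: hα7-wt nAChR GH4Cl cells, whole-cell patch clamp, holding −70 mV, series resistance <15 MΩ with ≥60% compensation, pH 7.3 HEPES solutions, solution switching <100 ms.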
A general note: In patch-clamp work, channel activity is measured electrically.

T1 sequence (P36544 23-502): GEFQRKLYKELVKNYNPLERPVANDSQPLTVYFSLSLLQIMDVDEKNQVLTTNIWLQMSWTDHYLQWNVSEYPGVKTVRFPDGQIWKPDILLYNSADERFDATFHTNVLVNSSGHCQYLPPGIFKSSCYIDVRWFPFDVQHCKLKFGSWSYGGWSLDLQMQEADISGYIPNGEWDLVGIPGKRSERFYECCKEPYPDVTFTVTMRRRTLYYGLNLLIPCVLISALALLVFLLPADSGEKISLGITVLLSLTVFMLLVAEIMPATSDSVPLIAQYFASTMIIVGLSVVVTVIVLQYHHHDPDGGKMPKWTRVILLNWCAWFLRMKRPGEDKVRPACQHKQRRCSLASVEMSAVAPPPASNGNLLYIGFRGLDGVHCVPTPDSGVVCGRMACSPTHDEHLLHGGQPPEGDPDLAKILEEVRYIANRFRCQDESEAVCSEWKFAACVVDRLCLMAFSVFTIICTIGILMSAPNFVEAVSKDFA

Consider `CC[C@H](O)Cc1nc(Nc2cc(OC)cc(C(F)(F)F)c2)nn1-c1ccc(C)nc1` [E142], for which the melting point (usually the temperature of the solid-liquid transition) was determined as 154.7 °C. Also, in data set [1], the EC50 was 182 nM and the Pam type was 4.
For `CC[C@H](O)Cc1nc(Nc2ccc(F)c(F)c2)nn1-c1cccc(F)c1` [E27] the same measures were 158.1 °C, 1910 nM and 1.
As for `Cc1cc(-n2nc(Nc3ccc(F)c(C(F)(F)F)c3)nc2CCC(=O)N(C)C)cc(C)n1` [E233], the melting point worked out at 184 °C. The EC50 in data set [1] was ~29.5 nM.
The molecule `COc1cc(Nc2nc(C[C@H](C)O)n(-c3ccnc(C)c3)n2)cc(C(F)(F)F)c1` [E135] gave a melting point of 196.3 °C. In data set [1], the EC50 is 550 nM and the Pam type stood at 4.
For `Cc1cc(-n2nc(Nc3ccc(F)c(F)c3)nc2CC(=O)NCC2CC2)cc(C)n1` [E185] the same measures were 278.7 °C, 468 nM and 2.
For `Cc1cc(-n2nc(Nc3cc(F)c(F)c(F)c3)nc2C[C@H](C)O)cc(C)n1` [E208] the same measures were 199.6 °C, 741 nM and 2.
In the same order, the values of `Cc1cc(-n2nc(Nc3cccc(C(F)(F)F)c3)nc2CC(=O)NC2CC2)cc(C)n1` [E171] are 270 °C, 501 nM and 4.
Regarding `Cc1cncc(-n2nc(Nc3ccc4c(c3)OC(F)(F)O4)nc2CCC(=O)N(C)C)c1` [E119], the melting point is 141.1 °C. For the same molecule, in data set [1], the EC50 is 107 nM and the Pam type came to 4.
In the same order, the values of `Cc1ccc(-n2nc(Nc3cccc(OC(F)(F)F)c3)nc2CCC(=O)N(C)C)cn1` [E75] are 174.3 °C, 186 nM and 4.
With `CCNC(=O)Cc1nc(Nc2cccc(Cl)c2F)nn1-c1cc(C)nc(C)c1` [E153, 3-[(3-chloro-2-fluorophenyl)amino]-1-(2,6-dimethyl-4-pyridinyl)-N-ethyl-1H-1,2,4-triazole-5-acetamide], the melting point is 231.4 °C. Moreover, in data set [1], the EC50 was 562 nM and the Pam type came out at 2.
Turning to `CC[C@H](O)Cc1nc(Nc2cc(OC)cc(C(F)(F)F)c2)nn1-c1ccnc(C)c1` [E137, (alphaS)-alpha-Ethyl-3-[[3-methoxy-5-(trifluoromethyl)phenyl]amino]-1-(2-methyl-4-pyridinyl)-1H-1,2,4-triazole-5-ethanol], the melting point is 174.1 °C. Besides, in data set [1], the EC50 is 105 nM and the Pam type was determined as 4.
Consider `CC[C@H](O)Cc1nc(Nc2cccc(Cl)c2)nn1-c1ccnc(C)c1` [E139], for which the melting point amounted to 126.7 °C. Also, in data set [1], the EC50 is 324 nM and the Pam type was determined as 2.
`CCNC(=O)Cc1nc(Nc2ccc3c(c2)OC(F)(F)O3)nn1-c1cc(C)nc(C)c1` [E200, 3-[(2,2-difluoro-1,3-benzodioxol-5-yl)amino]-1-(2,6-dimethyl-4-pyridinyl)-N-ethyl-1H-1,2,4-triazole-5-acetamide] returned a melting point of 280.9 °C. In data set [1], the EC50 was 407 nM and the Pam type turned out to be 2.
For `CC[C@H](O)Cc1nc(Nc2ccc(F)c(F)c2)nn1-c1ccc(F)cc1` [E28] the same measures were 157.3 °C, 1910 nM and 1.
With `Cc1cc(-n2nc(Nc3ccc4c(c3)OC(F)(F)O4)nc2CC(=O)NC2CC2)cc(C)n1` [E180, N-cyclopropyl-3-[(2,2-difluoro-1,3-benzodioxol-5-yl)amino]-1-(2,6-dimethyl-4-pyridinyl)-1H-1,2,4-triazole-5-acetamide], the melting point was found to be 292.6 °C. Also, in data set [1], the EC50 was 302 nM and the Pam type came to 2.
On to `C[C@H](O)Cc1nc(Nc2ccc(F)c(F)c2)nn1-c1cccc(F)c1` [E17], for which the melting point amounted to 177.1 °C. Moreover, the EC50 in data set [1] was 3550 nM.
